Common to all, as to experiment: pIC50, kinobeads binding competition
The target of one assay is T1, UniProt P35626.
T1 sequence (whole entry): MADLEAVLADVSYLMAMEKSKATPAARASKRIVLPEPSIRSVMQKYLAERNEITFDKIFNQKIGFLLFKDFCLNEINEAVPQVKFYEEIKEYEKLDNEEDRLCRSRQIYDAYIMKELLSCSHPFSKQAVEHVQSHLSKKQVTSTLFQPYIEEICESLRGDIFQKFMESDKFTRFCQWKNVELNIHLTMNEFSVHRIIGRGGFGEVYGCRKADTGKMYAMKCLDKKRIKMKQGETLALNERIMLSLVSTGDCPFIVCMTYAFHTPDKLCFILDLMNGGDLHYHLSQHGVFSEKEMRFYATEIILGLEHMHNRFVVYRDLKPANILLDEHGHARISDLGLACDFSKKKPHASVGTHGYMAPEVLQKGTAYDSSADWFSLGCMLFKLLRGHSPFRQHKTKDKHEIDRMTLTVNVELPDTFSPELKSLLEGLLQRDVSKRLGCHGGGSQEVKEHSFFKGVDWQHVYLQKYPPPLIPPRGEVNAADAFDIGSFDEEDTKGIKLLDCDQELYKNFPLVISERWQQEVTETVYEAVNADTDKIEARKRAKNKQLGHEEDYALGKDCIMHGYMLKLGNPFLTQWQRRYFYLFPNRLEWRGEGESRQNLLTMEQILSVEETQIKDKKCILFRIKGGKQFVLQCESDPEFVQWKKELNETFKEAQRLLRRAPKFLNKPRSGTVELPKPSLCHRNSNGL
In a few lines: (§1)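 Fold changes relative to vehicle, from biological duplicates, were fitted with logistic dose-response models in the R drc package to give pIC50. These fold changes came from TMT10 LC-MS/MS quantification of digested Kinobeads-bound proteins. Compound was applied at nine concentrations (top 30 μM) either to live Jurkat cells in 1:4 steps for 60 min at 37 °C before lysis, or to Jurkat lysate or a 1:1:1:1 HEK293/K-562/HepG2/placenta lysate mix in 1:5 steps for 60 min at 4 °C.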

For the next assay, the target named is UniProt Q13233. In a few lines: as §1
UniProt Q13233, sequence (Q13233 whole entry): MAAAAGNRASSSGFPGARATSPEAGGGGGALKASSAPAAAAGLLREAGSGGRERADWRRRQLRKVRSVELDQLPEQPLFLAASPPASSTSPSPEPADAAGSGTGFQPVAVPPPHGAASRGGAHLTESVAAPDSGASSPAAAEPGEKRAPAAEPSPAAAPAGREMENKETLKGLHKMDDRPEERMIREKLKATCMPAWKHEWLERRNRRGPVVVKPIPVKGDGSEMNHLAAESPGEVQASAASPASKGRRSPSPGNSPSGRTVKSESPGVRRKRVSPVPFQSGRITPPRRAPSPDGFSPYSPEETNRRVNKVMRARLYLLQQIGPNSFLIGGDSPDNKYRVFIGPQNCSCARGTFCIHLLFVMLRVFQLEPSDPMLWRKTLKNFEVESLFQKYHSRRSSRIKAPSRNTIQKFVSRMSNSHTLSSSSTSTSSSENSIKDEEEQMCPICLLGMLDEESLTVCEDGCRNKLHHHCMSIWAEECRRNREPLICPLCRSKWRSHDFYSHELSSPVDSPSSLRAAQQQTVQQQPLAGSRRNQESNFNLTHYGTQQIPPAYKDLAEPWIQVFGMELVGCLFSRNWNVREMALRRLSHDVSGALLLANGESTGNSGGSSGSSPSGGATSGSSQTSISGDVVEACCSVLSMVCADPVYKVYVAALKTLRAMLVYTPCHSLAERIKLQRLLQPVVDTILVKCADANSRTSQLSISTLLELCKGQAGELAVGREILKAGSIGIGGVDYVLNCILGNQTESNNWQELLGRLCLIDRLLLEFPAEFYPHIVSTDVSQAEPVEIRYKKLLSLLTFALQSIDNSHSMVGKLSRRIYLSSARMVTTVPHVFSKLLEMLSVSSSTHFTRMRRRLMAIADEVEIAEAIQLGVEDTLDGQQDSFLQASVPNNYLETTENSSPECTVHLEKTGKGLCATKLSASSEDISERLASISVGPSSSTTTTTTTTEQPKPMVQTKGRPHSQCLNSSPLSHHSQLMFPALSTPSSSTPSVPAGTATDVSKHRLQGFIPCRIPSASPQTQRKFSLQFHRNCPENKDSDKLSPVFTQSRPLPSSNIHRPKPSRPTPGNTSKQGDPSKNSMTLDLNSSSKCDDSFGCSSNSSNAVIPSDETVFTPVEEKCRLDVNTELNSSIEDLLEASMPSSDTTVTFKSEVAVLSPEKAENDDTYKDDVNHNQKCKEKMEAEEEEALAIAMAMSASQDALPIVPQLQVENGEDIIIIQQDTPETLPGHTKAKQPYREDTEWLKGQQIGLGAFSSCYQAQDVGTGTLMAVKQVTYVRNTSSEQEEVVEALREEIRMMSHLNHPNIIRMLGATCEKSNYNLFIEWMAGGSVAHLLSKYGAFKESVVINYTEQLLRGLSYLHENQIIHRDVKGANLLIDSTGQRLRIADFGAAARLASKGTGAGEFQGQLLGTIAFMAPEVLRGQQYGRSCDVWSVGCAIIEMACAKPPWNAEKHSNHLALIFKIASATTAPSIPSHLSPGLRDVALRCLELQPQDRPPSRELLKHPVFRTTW
Another assay has as its target T2, DYRK2 (UniProt Q92630).
T2 sequence (whole entry): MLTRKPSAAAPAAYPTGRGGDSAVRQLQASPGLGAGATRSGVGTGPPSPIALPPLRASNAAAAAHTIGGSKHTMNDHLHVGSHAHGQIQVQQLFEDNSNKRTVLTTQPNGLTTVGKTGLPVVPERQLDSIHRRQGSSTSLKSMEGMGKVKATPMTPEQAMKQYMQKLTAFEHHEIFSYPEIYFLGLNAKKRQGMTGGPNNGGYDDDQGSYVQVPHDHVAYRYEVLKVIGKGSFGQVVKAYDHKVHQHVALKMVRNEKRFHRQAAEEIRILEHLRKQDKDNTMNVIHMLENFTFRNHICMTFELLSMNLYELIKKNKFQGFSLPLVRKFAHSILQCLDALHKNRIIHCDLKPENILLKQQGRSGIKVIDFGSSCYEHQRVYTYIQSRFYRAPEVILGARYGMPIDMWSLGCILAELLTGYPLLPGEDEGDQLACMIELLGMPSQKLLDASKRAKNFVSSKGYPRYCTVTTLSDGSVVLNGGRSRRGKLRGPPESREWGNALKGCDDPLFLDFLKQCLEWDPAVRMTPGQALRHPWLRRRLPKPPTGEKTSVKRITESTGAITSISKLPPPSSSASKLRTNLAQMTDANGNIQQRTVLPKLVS
In a few lines: as §1

A further assay has as its target UniProt O94804. In a few lines:
as §1

A further assay concerns the target T3, UniProt O43318.
T3 sequence (whole entry): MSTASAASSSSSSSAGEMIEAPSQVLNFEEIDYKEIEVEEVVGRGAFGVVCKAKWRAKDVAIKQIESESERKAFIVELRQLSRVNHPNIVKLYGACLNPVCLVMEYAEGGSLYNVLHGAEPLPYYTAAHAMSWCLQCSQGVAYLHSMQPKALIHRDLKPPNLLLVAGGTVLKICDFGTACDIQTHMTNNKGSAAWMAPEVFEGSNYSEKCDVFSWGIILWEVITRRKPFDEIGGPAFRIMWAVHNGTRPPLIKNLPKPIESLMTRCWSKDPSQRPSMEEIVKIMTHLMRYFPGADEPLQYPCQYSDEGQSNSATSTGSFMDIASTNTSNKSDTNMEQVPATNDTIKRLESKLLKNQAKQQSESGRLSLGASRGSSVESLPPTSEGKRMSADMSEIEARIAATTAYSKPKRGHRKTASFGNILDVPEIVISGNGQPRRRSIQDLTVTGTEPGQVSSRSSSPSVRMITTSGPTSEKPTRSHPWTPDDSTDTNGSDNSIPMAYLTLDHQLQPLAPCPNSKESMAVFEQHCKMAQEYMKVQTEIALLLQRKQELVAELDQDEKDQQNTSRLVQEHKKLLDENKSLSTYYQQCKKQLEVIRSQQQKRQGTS
In a few lines: as §1

For the next assay, the target named is UniProt Q9NSY1. In a few lines: as §1
UniProt Q9NSY1, sequence (Q9NSY1 whole entry, looked up): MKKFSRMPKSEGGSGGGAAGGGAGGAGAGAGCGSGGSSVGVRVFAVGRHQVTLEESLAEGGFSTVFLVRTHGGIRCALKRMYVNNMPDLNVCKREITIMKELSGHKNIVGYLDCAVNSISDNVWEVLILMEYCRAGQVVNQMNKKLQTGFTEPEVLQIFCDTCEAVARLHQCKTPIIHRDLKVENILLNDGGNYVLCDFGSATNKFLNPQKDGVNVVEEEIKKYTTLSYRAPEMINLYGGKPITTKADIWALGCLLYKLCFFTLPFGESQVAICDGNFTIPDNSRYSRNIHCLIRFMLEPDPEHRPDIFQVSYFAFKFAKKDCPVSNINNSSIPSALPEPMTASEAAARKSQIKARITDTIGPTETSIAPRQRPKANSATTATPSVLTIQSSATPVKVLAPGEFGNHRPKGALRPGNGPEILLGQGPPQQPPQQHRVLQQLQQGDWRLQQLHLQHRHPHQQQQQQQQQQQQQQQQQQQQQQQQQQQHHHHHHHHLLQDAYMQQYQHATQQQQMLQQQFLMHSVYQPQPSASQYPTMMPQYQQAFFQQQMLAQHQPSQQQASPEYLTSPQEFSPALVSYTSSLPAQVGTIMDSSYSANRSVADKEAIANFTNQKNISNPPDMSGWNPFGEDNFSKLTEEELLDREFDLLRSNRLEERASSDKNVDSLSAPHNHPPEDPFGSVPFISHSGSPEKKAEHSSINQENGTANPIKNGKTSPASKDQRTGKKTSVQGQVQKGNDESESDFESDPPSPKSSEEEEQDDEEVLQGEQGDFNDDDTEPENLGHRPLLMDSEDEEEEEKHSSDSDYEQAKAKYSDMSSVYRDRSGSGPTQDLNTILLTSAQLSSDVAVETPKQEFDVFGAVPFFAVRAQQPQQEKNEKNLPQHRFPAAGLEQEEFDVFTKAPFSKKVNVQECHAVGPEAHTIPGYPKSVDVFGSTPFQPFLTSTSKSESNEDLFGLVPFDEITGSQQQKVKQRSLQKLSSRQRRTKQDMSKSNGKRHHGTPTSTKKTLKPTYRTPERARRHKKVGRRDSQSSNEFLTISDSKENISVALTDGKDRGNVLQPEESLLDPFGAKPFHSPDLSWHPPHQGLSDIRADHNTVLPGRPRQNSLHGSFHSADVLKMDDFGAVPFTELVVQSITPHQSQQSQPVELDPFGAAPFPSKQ
The next assay has as its target T4, PIP4K2A (UniProt P48426).
T4 sequence (whole entry): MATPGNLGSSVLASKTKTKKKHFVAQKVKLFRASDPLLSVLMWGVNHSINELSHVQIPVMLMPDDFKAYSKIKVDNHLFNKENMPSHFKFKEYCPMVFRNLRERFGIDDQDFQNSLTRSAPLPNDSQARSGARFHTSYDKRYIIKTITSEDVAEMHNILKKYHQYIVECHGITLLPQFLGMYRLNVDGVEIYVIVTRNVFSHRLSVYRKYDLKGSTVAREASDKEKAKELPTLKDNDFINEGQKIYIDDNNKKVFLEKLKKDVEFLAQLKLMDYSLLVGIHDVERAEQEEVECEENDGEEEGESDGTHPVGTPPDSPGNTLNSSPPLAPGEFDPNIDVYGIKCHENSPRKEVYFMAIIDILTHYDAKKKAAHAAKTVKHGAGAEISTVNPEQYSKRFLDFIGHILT
In a few lines: as §1

Results on six molecules are retold here after the supplement of paper PMC12076712.

Broadly, the pIC50 is −log10 of the IC50, conventionally taken in molar units.

UniProt O94804, sequence (O94804 whole entry, looked up): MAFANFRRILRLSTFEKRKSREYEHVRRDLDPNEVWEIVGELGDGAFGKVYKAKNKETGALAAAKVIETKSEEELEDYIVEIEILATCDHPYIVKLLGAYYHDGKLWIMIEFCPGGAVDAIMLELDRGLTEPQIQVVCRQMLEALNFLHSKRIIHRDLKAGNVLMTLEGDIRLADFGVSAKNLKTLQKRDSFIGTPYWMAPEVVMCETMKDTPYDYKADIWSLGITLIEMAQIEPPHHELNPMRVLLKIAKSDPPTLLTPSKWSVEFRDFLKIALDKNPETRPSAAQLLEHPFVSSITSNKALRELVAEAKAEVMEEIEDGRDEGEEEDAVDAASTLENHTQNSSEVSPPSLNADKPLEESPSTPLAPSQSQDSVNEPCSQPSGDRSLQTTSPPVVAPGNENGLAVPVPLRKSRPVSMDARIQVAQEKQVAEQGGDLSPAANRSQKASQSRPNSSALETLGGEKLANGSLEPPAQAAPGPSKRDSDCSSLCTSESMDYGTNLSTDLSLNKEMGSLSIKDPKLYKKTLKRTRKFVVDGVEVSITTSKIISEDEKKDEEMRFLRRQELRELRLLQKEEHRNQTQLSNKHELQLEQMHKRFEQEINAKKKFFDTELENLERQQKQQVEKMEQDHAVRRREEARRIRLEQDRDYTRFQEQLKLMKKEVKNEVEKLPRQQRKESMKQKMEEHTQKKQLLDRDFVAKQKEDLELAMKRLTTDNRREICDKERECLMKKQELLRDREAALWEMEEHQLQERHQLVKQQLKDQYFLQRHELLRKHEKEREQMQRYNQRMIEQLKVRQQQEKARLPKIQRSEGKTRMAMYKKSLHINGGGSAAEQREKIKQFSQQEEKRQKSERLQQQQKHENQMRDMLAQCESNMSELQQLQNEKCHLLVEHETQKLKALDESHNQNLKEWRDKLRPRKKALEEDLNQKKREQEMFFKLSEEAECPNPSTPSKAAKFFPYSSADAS

For the molecule `Cc1cc(Nc2cc(C(=O)NCCNC(=O)OC3CC/C=C/CCC3)nc(N3CCN(Cc4ccc(S(=O)(=O)F)cc4)CC3)n2)n[nH]1` (stereo unspecified), the pIC50 at UniProt P35626 (cell material: Lysate mix), at UniProt Q13233 (cell material: Lysate mix), at DYRK2 (cell material: Lysate mix), on UniProt O94804 (cell material: Lysate mix), at UniProt O43318 (cell material: Lysate mix) and on UniProt Q9NSY1 (cell material: Lysate mix) was less than 4.52 in each case. The same molecule displayed a pIC50 at PIP4K2A (cell material: Lysate mix) of less than 4.52.

With `C#CCNC(=O)c1cc(Nc2cc(C3CC3)[nH]n2)nc(N2CCN(Cc3ccc(S(=O)(=O)F)cc3)CC2)n1`, the pIC50 on UniProt P35626 (cell material: Jurkat cells) is 5.77; on UniProt P35626 (cell material: Jurkat lysate) it was less than 4.52; on UniProt Q13233 (cell material: Jurkat lysate) it was less than 4.52; on UniProt Q13233 (cell material: Lysate mix), less than 4.52; on DYRK2 (cell material: Jurkat cells), less than 4.52; at DYRK2 (cell material: Jurkat lysate) it was less than 4.52. The pIC50 is 5.04 on UniProt O94804 (cell material: Jurkat cells); less than 4.52 on UniProt O94804 (cell material: Jurkat lysate); less than 4.52 on UniProt O94804 (cell material: Lysate mix); 5.87 at UniProt O43318 (cell material: Jurkat cells); less than 4.52 at UniProt O43318 (cell material: Jurkat lysate); less than 4.52 at UniProt O43318 (cell material: Lysate mix). Besides, the pIC50 is 5.24 on UniProt Q9NSY1 (cell material: Jurkat cells); less than 4.52 on UniProt Q9NSY1 (cell material: Jurkat lysate); less than 4.52 at UniProt Q9NSY1 (cell material: Lysate mix); 4.96 at PIP4K2A (cell material: Jurkat cells); less than 4.52 on PIP4K2A (cell material: Jurkat lysate); less than 4.52 at PIP4K2A (cell material: Lysate mix).

`CCNC(=O)c1cc(Nc2cc(C3CC3)[nH]n2)nc(N2CCN(Cc3ccc(S(=O)(=O)F)cc3)CC2)n1`: the pIC50 was less than 4.52 at UniProt P35626 (cell material: Lysate mix); less than 4.52 at UniProt Q13233 (cell material: Lysate mix); 4.65 at DYRK2 (cell material: Lysate mix); less than 4.52 at UniProt O94804 (cell material: Lysate mix); less than 4.52 on UniProt O43318 (cell material: Lysate mix); less than 4.52 at UniProt Q9NSY1 (cell material: Lysate mix). Also, the pIC50 on PIP4K2A (cell material: Lysate mix) is less than 4.52.

As to `C#CCNC(=O)c1cc(Nc2cc(C)[nH]n2)nc(N2CCN(Cc3ccc(S(=O)(=O)F)cc3)CC2)n1`, the pIC50 at UniProt P35626 (cell material: Lysate mix), on UniProt Q13233 (cell material: Lysate mix), at DYRK2 (cell material: Lysate mix), at UniProt O94804 (cell material: Lysate mix), at UniProt O43318 (cell material: Lysate mix) and at UniProt Q9NSY1 (cell material: Lysate mix) was less than 4.52 throughout. Further, the pIC50 at PIP4K2A (cell material: Lysate mix) is less than 4.52.

On to `O=C(NCCNC(=O)c1cc(Nc2cc(C3CC3)[nH]n2)nc(N2CCN(Cc3ccc(S(=O)(=O)F)cc3)CC2)n1)OC1CC/C=C/CCC1` (stereo unspecified), for which the pIC50 on UniProt P35626 (cell material: Jurkat lysate), on UniProt P35626 (cell material: Lysate mix), on UniProt Q13233 (cell material: Jurkat cells), on UniProt Q13233 (cell material: Jurkat lysate), at UniProt Q13233 (cell material: Lysate mix) and at DYRK2 (cell material: Jurkat cells) was less than 4.52 throughout. In addition, the negative-log IC50 (pIC50) at DYRK2 (cell material: Jurkat lysate) was less than 4.52; at DYRK2 (cell material: Lysate mix), less than 4.52; on UniProt O94804 (cell material: Jurkat cells), less than 4.52; at UniProt O94804 (cell material: Jurkat lysate), less than 4.52; at UniProt O94804 (cell material: Lysate mix), less than 4.52; at UniProt O43318 (cell material: Jurkat cells), 5.65. The pIC50 on UniProt O43318 (cell material: Jurkat lysate), on UniProt O43318 (cell material: Lysate mix), at UniProt Q9NSY1 (cell material: Jurkat cells), at UniProt Q9NSY1 (cell material: Jurkat lysate), on UniProt Q9NSY1 (cell material: Lysate mix) and on PIP4K2A (cell material: Jurkat cells) was less than 4.52 throughout. Further, the pIC50 on PIP4K2A (cell material: Jurkat lysate) and at PIP4K2A (cell material: Lysate mix) was less than 4.52 each time.

With `CCNC(=O)c1cc(Nc2cc(C)[nH]n2)nc(N2CCN(Cc3ccc(S(=O)(=O)F)cc3)CC2)n1`, the pIC50 on UniProt P35626 (cell material: Lysate mix), on UniProt Q13233 (cell material: Lysate mix), at DYRK2 (cell material: Lysate mix), on UniProt O94804 (cell material: Lysate mix), at UniProt O43318 (cell material: Lysate mix) and at UniProt Q9NSY1 (cell material: Lysate mix) was less than 4.52 each time. The molecule also returned a pIC50 at PIP4K2A (cell material: Lysate mix) of less than 4.52.
